Measurements: the supplement of paper PMC6045584
± gives the standard deviation of the averaged measurements.

Legend:
[1] = compound: C=CCNC1=C2C[C@@H](C)C[C@H](OC)[C@H](O)[C@@H](C)/C=C(\C)[C@H](OC(N)=O)[C@@H](OC)/C=C\C=C(/C)C(=O)NC(=CC1=O)C2=O [17-AAG]; assay: surviving fraction relative to DMSO-only wells; higher = less growth inhibition; conditions: exposure time: 5 days
Method in brief: (§1)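 Each tumour cell line was screened three times, and only lines with replicate Pearson r >0.7 and median Z' >0.3 were kept. Cells in log phase were seeded at 250–500 per well in 384-well plates, left 24 hours, then exposed continuously for five days to inhibitors at 0.5, 1, 5, 10, 50, 100, 500 and 1000 nM. Viability was read as CellTiter-Glo luminescence, with surviving fraction normalised to the median of DMSO-only wells.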

[2] = compound: COc1cc2c(cc1O)CC[C@@H]1[C@@H]2CC[C@]2(C)[C@@H](O)CC[C@@H]12 [2-METHOXYESTRADIOL]; assay: as above; conditions: exposure time: 5 days
Method in brief: as §1

Test System	surviving fraction ([1]; 0.5 nM)	surviving fraction ([1]; 1 nM)	surviving fraction ([1]; 5 nM)	surviving fraction ([1]; 10 nM)	surviving fraction ([1]; 50 nM)	surviving fraction ([1]; 100 nM)	surviving fraction ([1]; 500 nM)	surviving fraction ([1]; 1000 nM)	surviving fraction ([2]; 0.5 nM)	surviving fraction ([2]; 1 nM)	surviving fraction ([2]; 5 nM)	surviving fraction ([2]; 10 nM)	surviving fraction ([2]; 50 nM)	surviving fraction ([2]; 100 nM)	surviving fraction ([2]; 500 nM)	surviving fraction ([2]; 1000 nM)
HMT3552 BREAST	0.913	0.915	1.15	0.904	0.087	0.064	0.056	0.062	1.06 ± 0.034	1.04 ± 0.09	1.08 ± 0.013	0.993 ± 0.015	1.11 ± 0.029	1.17 ± 0.066	0.343 ± 0.025	0.126 ± 0.008
HS578T BREAST	0.904 ± 0.057	0.928 ± 0.033	0.525 ± 0.1	0.409 ± 0.051	0.281 ± 0.049	0.234 ± 0.022	0.213 ± 0.026	0.222 ± 0.026	0.859 ± 0.075	0.947 ± 0.024	0.946 ± 0.13	0.917 ± 0.046	1.05 ± 0.23	1.16 ± 0.096	0.499 ± 0.08	0.188 ± 0.0064
HMLE3 BREAST	0.875 ± 0.029	0.889 ± 0.079	0.973 ± 0.037	0.925 ± 0.062	0.0453 ± 0.0025	0.0247 ± 0.0011	0.021 ± 0.002	0.024 ± 0.001	0.913 ± 0.033	0.964 ± 0.037	0.991 ± 0.059	1.05 ± 0.031	0.987 ± 0.068	0.887 ± 0.059	0.937 ± 0.064	0.602 ± 0.035
HCC70 BREAST	1.01 ± 0.09	0.971 ± 0.066	1.01 ± 0.046	0.804 ± 0.0083	0.091 ± 0.017	0.0907 ± 0.012	0.073 ± 0.017	0.0667 ± 0.0091	0.978 ± 0.05	1.06 ± 0.064	1.03 ± 0.062	1.07 ± 0.016	1.03 ± 0.14	1.01 ± 0.1	0.629 ± 0.044	0.212 ± 0.043
G292 BONE	0.928 ± 0.035	0.934 ± 0.031	0.956 ± 0.052	0.792 ± 0.018	0.295 ± 0.018	0.266 ± 0.0069	0.0898 ± 0.01	0.087 ± 0.004	0.988 ± 0.035	0.956 ± 0.026	1.04 ± 0.035	0.994 ± 0.049	0.982 ± 0.061	0.919 ± 0.029	0.39 ± 0.013	0.234 ± 0.017
HCC38 BREAST	0.802 ± 0.19	0.906 ± 0.26	0.293 ± 0.082	0.185 ± 0.067	0.0753 ± 0.022	0.0727 ± 0.0085	0.059 ± 0.0092	0.0613 ± 0.0025	1.28 ± 0.069	1.28 ± 0.15	1.12 ± 0.26	1.21 ± 0.18	1.35 ± 0.15	1.02 ± 0.36	0.76 ± 0.074	0.349 ± 0.028
HS57T BREAST	0.973 ± 0.08	0.919 ± 0.025	0.699 ± 0.064	0.263 ± 0.032	0.134 ± 0.011	0.126 ± 0.0038	0.105 ± 0.0035	0.106 ± 0.0049	0.919 ± 0.034	0.879 ± 0.078	0.95 ± 0.074	0.965 ± 0.041	0.936 ± 0.044	0.901 ± 0.054	0.326 ± 0.017	0.0817 ± 0.0051
